According to ChEMBL document CHEMBL1158232, “Isolation of Polyhydroxysteroids from the Gorgonian Acabaria undulata” (J Nat Prod, 1996):
The source made the active and inactive calls. No cut-off for these calls is given here.

Key:
Phospholipase A2 [1] = target: T1, Phospholipase A2 (Homo sapiens, UniProt P04054); test: Inhibition of PLA2 at 100 uM
Target sequence in this assay (P04054 23-148 limits assumed): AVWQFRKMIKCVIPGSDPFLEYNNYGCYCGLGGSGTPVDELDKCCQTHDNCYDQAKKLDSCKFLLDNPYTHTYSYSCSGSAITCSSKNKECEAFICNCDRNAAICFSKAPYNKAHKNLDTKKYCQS

P388 = test: Cytotoxicity against mouse P388 cells; format: functional, cell-based
DLD-1 = test: Cytotoxicity against human DLD1 cells; format: functional, cell-based
Phospholipase A2 [2] = target: T1, Phospholipase A2; test: Inhibition of PLA2
Target sequence in this assay (P04054 whole entry): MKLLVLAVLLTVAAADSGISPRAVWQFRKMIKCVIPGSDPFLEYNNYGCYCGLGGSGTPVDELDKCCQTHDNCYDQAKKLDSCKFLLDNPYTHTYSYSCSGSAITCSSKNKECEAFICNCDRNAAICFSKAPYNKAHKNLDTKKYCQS

| Activity (Phospholipase A2 [1]) | IC50 (Phospholipase A2 [2]) [µM] | SMILES | IC50 (P388) [µM] | IC50 (DLD-1) [µM] |
| --- | --- | --- | --- | --- |
| inactive |  | CC(=O)O[C@H]1CC[C@]2(C)[C@H]3CC[C@]4(C)[C@@H]([C@H](C)/C=C/CC(C)C)CC[C@H]4[C@]34O[C@@H]4[C@H](OC(C)=O)[C@@]2(O)C1 | 11.6 | 12.6 |
|  | 21.5 | CC(C)/C=C/[C@@H](C)[C@H]1CC[C@@H]2[C@]1(C)CC[C@H]1[C@@]23O[C@@H]3[C@H](O)[C@@]2(O)C[C@@H](O)CC[C@]12C | 28.7 | 24.6 |
| inactive |  | CC(C)C(C)/C=C/[C@@H](C)[C@H]1CC[C@@H]2[C@]1(C)CC[C@H]1[C@@]23O[C@@H]3[C@H](O)[C@@]2(O)C[C@@H](O)CC[C@]12C (some centres not stated) | 20.2 | 22.4 |
|  | 13.8 | CC(C)CCC[C@@H](C)[C@H]1CC[C@@H]2[C@]1(C)CC[C@H]1[C@@]23O[C@@H]3[C@H](O)[C@@]2(O)C[C@@H](O)CC[C@]12C | 17.9 | 19.6 |
